Patent US20080021099A1, “5-Cyano-prostacyclin derivatives as agents for the treatment of autoimmune disease” (Bayer Schering Pharma Aktiengesellschaft, priority 2006, published 2008)
Where two headings read alike, the source gives them in different places.

Legend:
Assay type in all cases: cell-based
human CD8 cells = test: Anti-CD3/CD28-stimulated cytotoxic CD8+ lymphocyte cytokine release, multi-cytokine bead immunoassay; settings: 1 μM Nileprost; for inhibition at 1 µM: Homo sapiens, Lymphocyte, Anti-CD3/CD28 stimulation, overnight
Description: The activation of a human T lymphocyte by an antigen-presenting cell and antigen through the T cell receptor is mimicked in experimental conditions by the addition of antibodies to the CD3 subunit of the T cell receptor and antibodies to the CD28 costimulatory receptor. It is known that anti-CD3 anti-CD28 binding to T lymphocytes stimulates the cells to release various cytokines. Some of these cytokines are IL-2, IFN-γ and GM-CSF. The biochemistry and biological activities of these cytokines have been extensively reviewed in the literature. The binding of Nileprost to the EP receptor inhibits the release of various CD8+ cytokines.
Multi-cytokine immunosorbant assays based on antibodies specific to human cytokines are commercially available. Standards and samples are pipetted into sample tubes. A monoclonal antibody specific for a cytokine is covalently linked to a fluorescent bead set, which captures the cytokine. A complementary biotinylated monoclonal cytokine antibody then completes the immunological sandwich and the reaction is detected with streptavidin-phycoerythrin.
CD14-negative populations were isolated from four donors by Miltenyi CD14 beads. The four populations were allowed to rest at 5×10^6/mL in separate flasks overnight in RPMI 1640, 10% fetal bovine serum. Meanwhile, anti-CD3 antibody (OKT3, functional antibody, eBioscience) were bound to 10 cm plates at 5 μg/mL in sodium carbonate binding buffer at 4° C. The next day, the cells were mixed and 1×10^9 cells were taken for CD8 isolation using the Milenyi CD8 isolation kit (negative selection). The resulting 3.9×10^8 CD8 cells were resuspended in medium at 4×10^6/mL and added to the 10 cm CD3-bound plates. Soluble anti-CD28 (2-5 μg/mL) and 1 μM Nileprost or vehicle alone were added to the CD8 cells. Incubation was continued overnight and cytokines were detected as described above.

[1] = test system: Human monocyte derived dendritic cells; test: LPS-stimulated monocyte-derived dendritic cell IL-12 release, ELISA; settings: for inhibition at 1 µM: Homo sapiens, Dendritic cell, 18 h, read-out: Inhibition (percent) of IL-12 release; for inhibition at 1 µM / Inhibition (percent) of IL-12 release: 10 ng/mL LPS, approx. 18 hr; for Inhibition (percent) of IL-12 release: 1 µM of PGE2
Description: Following stimulation through the toll-like receptors TLR, DCs express and release proinflammatory cytokines and chemokines and may induce activation and proliferation of naïve T cells. The binding of Nileprost to the EP receptor inhibits TLR4 ligand (LPS)-stimulated IL-12 release. Therefore, Nileprost skews the CD4 T cell differentiation to a Th-2 lineage.
IL-12 is a 75 kDa glycoprotein heterodimer (p70) composed of two genetically unrelated subunits linked by a disulfide bond. Enzyme-linked immunosorbant assays based on antibodies specific to IL-12 p70 are commercially available. Standards and samples are pipetted into the wells of a microplate. An antibody specific to human IL-12 is added to the wells. A substrate is added to the wells and color develops in proportion to the amount of IL-12 bound. The intensity of the color is measured.
Human monocyte-derived dendritic cells were isolated from human donors using a Ficoll density gradient and residual erythrocytes were removed by selective lysis. CD14 MicroBeads were used for separation of human cells based on the expression of the CD14 antigen. The dendritic cells were cultured at approximately 1.5×10^6 cells per mL in RPMI1640 with fetal bovine serum, 200 ng/mL GM-CSF (Leukine) and 10 ng/mL IL-4. The cells grew for a period of 3 days and then the media was changed. 10 ng/mL LPS was used to activate the cells. 1 μM of Nileprost and 1 µM of PGE2 were added during the LPS stimulation. Cells were incubated for approximately 18 hr at 37° C. IL-12 released during activation was measured by ELISA.

human T cells = test: ConA-stimulated T lymphocyte Th-1 cytokine (IFN-γ) release, ELISA; settings: for inhibition at 0.0005 µM / inhibition at 0.00125 µM / inhibition at 0.0025 µM / inhibition at 0.005 µM / inhibition at 0.01 µM / inhibition at 0.02 µM: Homo sapiens, T-cell, 18 h, ConA 2 μg/mL, approx. 18 hr, read-out: Inhibition (percent) of IFN-γ release; for inhibition at 0.0005 µM: Nileprost 0.5 nM; for inhibition at 0.00125 µM: Nileprost 1.25 nM; for inhibition at 0.0025 µM: Nileprost 2.5 nM; for inhibition at 0.005 µM: Nileprost 5 nM; for inhibition at 0.01 µM: Nileprost 10 nM; for inhibition at 0.02 µM: Nileprost 20 nM
Description: The activation of a human T lymphocyte by an antigen-presenting cell and antigen through the T cell receptor is mimicked in experimental conditions by the lectin Concanavilin A (ConA). It is known that ConA binds to the T cell receptor and stimulates the cell to release various cytokines. The binding of Nileprost to the EP receptor inhibits various cytokines release. One of the Th-1 released cytokines is IFN-γ. The biochemistry and biological activities of IFN-γ have been extensively reviewed in the literature.
Human IFN-γ is a dimer of the expressed 143 amino acid protein. Enzyme-linked immunosorbant assays (ELISA) based on antibodies specific to IFN-γ are commercially available. Standards and samples are pipetted into the wells of a microplate. An antibody specific to human IFN-γ is added to the wells. A substrate is added to the wells and color develops in proportion to the amount of IFN-γ bound. The intensity of the color is measured.
Peripheral blood lymphocytes were isolated from human donors using a Ficoll density gradient and residual erythrocytes were removed by selective lysis. The lymphocytes are cultured at approximately 10^6 cells per mL in RPMI1640 with 10% additional fetal bovine serum. The cell cultures were activated with 2 μg/mL of ConA as described above. Nileprost was added at various dilutions during the ConA activation. Cells were incubated for approximately 18 hr at 37° C. IFN-γ released during activation was measured by ELISA.

CCCCC(C)[C@H](O)/C=C/[C@@H]1[C@H]2C/C(=C(\C#N)CCCC(=O)O)O[C@H]2C[C@H]1O (some centres unmarked) [Nileprost]
Inhibitory activity in cytotoxic CD8+ lymphocyte cytokine release (in words) (human CD8 cells): very high inhibitory activity | inhibition at 1 µM (human CD8 cells; Donor 1, read-out: Inhibition (percent) of GM-CSF release): 77% | inhibition at 1 µM (human CD8 cells; Donor 1, read-out: Inhibition (percent) of IFN-γ release): 79% | inhibition at 1 µM (human CD8 cells; Donor 1, read-out: Inhibition (percent) of IL-2 release): 71% | inhibition at 1 µM (human CD8 cells; Donor 2, read-out: Inhibition (percent) of GM-CSF release): 65% | inhibition at 1 µM (human CD8 cells; Donor 2, read-out: Inhibition (percent) of IFN-γ release): 59% | inhibition at 1 µM (human CD8 cells; Donor 2, read-out: Inhibition (percent) of IL-2 release): 68% | inhibition at 1 µM (human CD8 cells; Donor 3, read-out: Inhibition (percent) of GM-CSF release): 87% | inhibition at 1 µM (human CD8 cells; Donor 3, read-out: Inhibition (percent) of IFN-γ release): 79% | inhibition at 1 µM (human CD8 cells; Donor 3, read-out: Inhibition (percent) of IL-2 release): 88% | inhibition at 1 µM (human CD8 cells; Donor 4, read-out: Inhibition (percent) of GM-CSF release): 61% | inhibition at 1 µM (human CD8 cells; Donor 4, read-out: Inhibition (percent) of IFN-γ release): 80% | inhibition at 1 µM (human CD8 cells; Donor 4, read-out: Inhibition (percent) of IL-2 release): 70% | Inhibitory activity in human monocyte-derived dendritic cell (DC) cytokine release (in words) ([1]; 1 μM of Nileprost): very high inhibitory activity | inhibition at 1 µM ([1]; Donor 1, 1 μM of Nileprost): 84% | inhibition at 1 µM ([1]; Donor 2, 1 μM of Nileprost): 51% | inhibition at 1 µM ([1]; Donor 3, 1 μM of Nileprost): 69% | inhibition at 1 µM ([1]; Donor 4, 1 μM of Nileprost): 66% | inhibition at 0.0005 µM (human T cells; Donor 1): 17% | inhibition at 0.00125 µM (human T cells; Donor 1): 23% | inhibition at 0.0025 µM (human T cells; Donor 1): 45% | inhibition at 0.005 µM (human T cells; Donor 1): 56% | inhibition at 0.01 µM (human T cells; Donor 1): 50% | inhibition at 0.02 µM (human T cells; Donor 1): 67% | inhibition at 0.0005 µM (human T cells; Donor 2): 2% | inhibition at 0.00125 µM (human T cells; Donor 2): 11% | inhibition at 0.0025 µM (human T cells; Donor 2): 17% | inhibition at 0.005 µM (human T cells; Donor 2): 35% | inhibition at 0.01 µM (human T cells; Donor 2): 43% | inhibition at 0.02 µM (human T cells; Donor 2): 41% | inhibition at 0.0005 µM (human T cells; Donor 3): 26% | inhibition at 0.00125 µM (human T cells; Donor 3): 36% | inhibition at 0.0025 µM (human T cells; Donor 3): 43% | inhibition at 0.005 µM (human T cells; Donor 3): 54% | inhibition at 0.01 µM (human T cells; Donor 3): 64% | inhibition at 0.02 µM (human T cells; Donor 3): 68% | inhibition at 0.0005 µM (human T cells; Donor 4): 21% | inhibition at 0.00125 µM (human T cells; Donor 4): 29% | inhibition at 0.0025 µM (human T cells; Donor 4): 31% | inhibition at 0.005 µM (human T cells; Donor 4): 48% | inhibition at 0.01 µM (human T cells; Donor 4): 55% | inhibition at 0.02 µM (human T cells; Donor 4): 56% | Inhibitory activity in T lymphocyte Th-1 cytokine release (in words) (human T cells; dose responsively, 0.5-20 nM): very high inhibitory activity

CCCCC[C@H](O)/C=C/[C@H]1[C@H](O)CC(=O)[C@@H]1C/C=C\CCCC(=O)O [PGE2, Prostaglandin E2, reference compound]
Inhibition (percent) of IL-12 release ([1]; Donor 1): 80% | Inhibition (percent) of IL-12 release ([1]; Donor 2): 33% | Inhibition (percent) of IL-12 release ([1]; Donor 3): 83% | Inhibition (percent) of IL-12 release ([1]; Donor 4): 72%
